This test addresses T1, human NTSR1 (Homo sapiens, UniProt P30989).
T1 construct: host or cells: HEK-293 cells (membrane preparations)
The test can be described thus: radioligand-receptor binding assay, [125I] labeled neurotensin (Eurofins Panlabs). The note with it: [125I] neurotensin 0.02 nM, membranes from NTSR1 expressing HEK-293 cells, 45 minute incubation, Cheng and Prusoff; read-out: NTSR1 binding Ki. The procedure: Conjugates were assessed in an in vitro assay evaluating binding to NTSR1. A radioligand-receptor binding assay was conducted at Eurofins Panlabs (Taiwan) to determine the affinity of conjugates described herein to NTSR1. The assay measures binding of radiolabeled ligand, [^125I] labeled neurotensin, to human NTSR1 using membrane preparations from NTSR1 expressing HEK-293 cells (Human embryonic kidney cells 293). Membranes were incubated with radiolabeled neurotensin (0.02 nM) in the presence of conjugate/compound starting at a dose of either 100 nM, or 10 nM, using 3× serial dilutions to obtain a 6-pt curve. After a 45 minute incubation, membranes were filtered and washed 3× and counted to determine the remaining [^125I] neurotensin bound to the receptor. IC50 values were determined by a non-linear, least squares regression analysis using MathIQ™ (ID Business Solutions Ltd., UK). The Ki values were calculated using the equation of Cheng and Prusoff (Cheng and Prusoff, Biochem. Pharmacol. 22:3099-3108, 1973) using the observed IC50 of the tested conjugate/compound, the concentration of radioligand employed in the assay, and the historical values for the Kd of the ligand obtained at Eurofins.

The structures appear in SMILES notation.

In general, Ki refers to a measure of affinity in units of concentration, obtained from inhibition or displacement.

T1 sequence (P30989 whole entry): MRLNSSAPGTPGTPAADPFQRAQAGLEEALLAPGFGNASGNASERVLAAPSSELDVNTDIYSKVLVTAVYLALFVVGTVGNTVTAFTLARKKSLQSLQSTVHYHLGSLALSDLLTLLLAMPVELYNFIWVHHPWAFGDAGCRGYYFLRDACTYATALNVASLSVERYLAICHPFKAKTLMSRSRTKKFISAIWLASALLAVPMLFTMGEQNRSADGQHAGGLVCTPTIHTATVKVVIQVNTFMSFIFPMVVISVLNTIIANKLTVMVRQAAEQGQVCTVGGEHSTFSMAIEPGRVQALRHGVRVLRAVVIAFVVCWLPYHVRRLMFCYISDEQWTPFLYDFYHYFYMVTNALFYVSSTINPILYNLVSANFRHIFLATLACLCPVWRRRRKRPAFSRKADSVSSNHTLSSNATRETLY

As to `COc1cc2cc(c1Cl)N(C)C(=O)C[C@H](OC(=O)[C@H](C)N(C)C(=O)CCSC1CC(=O)N(CCCNC(=O)CNC(=O)[C@H](CC(C)C)NC(=O)[C@H](Cc3ccccc3)NC(=O)CNC(=O)CCCCCN3C(=O)CC(SCCC(=O)NCCCC[C@H](NC(C)=O)C(=O)N4CCC[C@H]4C(=O)N[C@H](CCCNC(=N)N)C(=O)N[C@@H](CCCNC(=N)N)C(=O)N4CCC[C@H]4C(=O)N[C@@H](Cc4ccc(O)cc4)C(=O)N[C@H](C(=O)N[C@@H](C[Si](C)(C)C)C(=O)O)C4CCCCC4)C3=O)C1=O)[C@]1(C)O[C@H]1[C@H](C)[C@@H]1C[C@@](O)(NC(=O)O1)[C@H](OC)/C=C/C=C(\C)C2` (stereo partly shown) [Compound 41], the inhibitory constant (Ki) amounted to 0.89 nM.
Next, `CC[C@H](C)[C@H](NC(=O)[C@@H](Cc1ccc(O)cc1)NC(=O)[C@@H]1CCCN1C(=O)[C@H](CCCNC(=N)N)NC(=O)[C@@H](CCCNC(=N)N)NC(=O)[C@@H]1CCCN1C(=O)[C@H](CCCCNC(=O)CCSC1CC(=O)N(CCCCCC(=O)NCC(=O)N[C@@H](Cc2ccccc2)C(=O)N[C@@H](CC(C)C)C(=O)NCC(=O)NCCCN2C(=O)CC(SCCC(=O)N(C)[C@@H](C)C(=O)O[C@H]3CC(=O)N(C)c4cc(cc(OC)c4Cl)C/C(C)=C/C=C/[C@@H](OC)[C@@]4(O)C[C@H](OC(=O)N4)[C@@H](C)[C@@H]4O[C@@]34C)C2=O)C1=O)NC(C)=O)C(=O)N[C@@H](C[Si](C)(C)C)C(=O)O` (stereo partly shown) [Compound 45]: greater than 10 nM; `CC[C@H](C)[C@H](NC(=O)[C@H](Cc1ccc(O)cc1)NC(=O)[C@@H]1CCCN1C(=O)[C@H](CCCNC(=N)N)NC(=O)[C@@H](CCCNC(=N)N)NC(=O)[C@@H]1CCCN1C(=O)[C@H](CCCCNC(=O)CCSC1CC(=O)N(CCCCCC(=O)NCC(=O)N[C@@H](Cc2ccccc2)C(=O)N[C@@H](CC(C)C)C(=O)NCC(=O)NCCCN2C(=O)CC(SCCC(=O)N(C)[C@@H](C)C(=O)O[C@H]3CC(=O)N(C)c4cc(cc(OC)c4Cl)C/C(C)=C/C=C/[C@@H](OC)[C@@]4(O)C[C@H](OC(=O)N4)[C@@H](C)[C@@H]4O[C@@]34C)C2=O)C1=O)NC(C)=O)C(=O)N[C@@H](C[Si](C)(C)C)C(=O)O` (stereo partly shown) [Compound 38]: 0.087 nM.
As for `COc1cc2cc(c1Cl)N(C)C(=O)C[C@H](OC(=O)[C@H](C)N(C)C(=O)CCSC1CC(=O)N(CCCNC(=O)CNC(=O)[C@H](CC(C)C)NC(=O)[C@H](Cc3ccccc3)NC(=O)CNC(=O)CCCCCN3C(=O)CC(SCCC(=O)NCCCC[C@H](NC(C)=O)C(=O)N4CCC[C@H]4C(=O)N[C@H](CCCNC(=N)N)C(=O)N[C@@H](CCCNC(=N)N)C(=O)N4CCC[C@H]4C(=O)N[C@@H](Cc4ccc(O)cc4)C(=O)N[C@H](C(=O)N[C@@H](C[Si](C)(C)C)C(=O)O)C(C)(C)C)C3=O)C1=O)[C@]1(C)O[C@H]1[C@H](C)[C@@H]1C[C@@](O)(NC(=O)O1)[C@H](OC)/C=C/C=C(\C)C2` (stereo partly shown) [Compound 40], the Ki is 0.36 nM.
In the case of `CC[C@H](C)[C@H](NC(=O)[C@H](Cc1ccc(Cl)c(Cl)c1)NC(=O)[C@@H]1CCCN1C(=O)[C@H](CCCNC(=N)N)NC(=O)[C@@H](CCCNC(=N)N)NC(=O)[C@@H]1CCCN1C(=O)[C@H](CCCCNC(=O)CCSC1CC(=O)N(CCCCCC(=O)NCC(=O)N[C@@H](Cc2ccccc2)C(=O)N[C@@H](CC(C)C)C(=O)NCC(=O)NCCCN2C(=O)CC(SCCC(=O)N(C)[C@@H](C)C(=O)O[C@H]3CC(=O)N(C)c4cc(cc(OC)c4Cl)C/C(C)=C/C=C/[C@@H](OC)[C@@]4(O)C[C@H](OC(=O)N4)[C@@H](C)[C@@H]4O[C@@]34C)C2=O)C1=O)NC(C)=O)C(=O)N[C@@H](C[Si](C)(C)C)C(=O)O` (stereo partly shown) [Compound 47], the Ki is greater than 10 nM.
For the molecule `COc1cc2cc(c1Cl)N(C)C(=O)C[C@H](OC(=O)[C@H](C)N(C)C(=O)CCSC1CC(=O)N(CCCNC(=O)CNC(=O)[C@H](CC(C)C)NC(=O)[C@H](Cc3ccccc3)NC(=O)CNC(=O)CCCCCN3C(=O)CC(SCCC(=O)NCCCC[C@H](NC(C)=O)C(=O)N4CCC[C@H]4C(=O)N[C@H](CCCNC(=N)N)C(=O)N[C@@H](CCCNC(=N)N)C(=O)N4CCC[C@H]4C(=O)N[C@@H](Cc4ccc(O)cc4)C(=O)N[C@H](C(=O)N[C@@H](C[Si](C)(C)C)C(=O)O)[C@@H](C)OC)C3=O)C1=O)[C@]1(C)O[C@H]1[C@H](C)[C@@H]1C[C@@](O)(NC(=O)O1)[C@H](OC)/C=C/C=C(\C)C2` (stereo partly shown) [Compound 39], the Ki amounted to 0.8 nM.
In the case of `CC[C@H](C)[C@H](NC(=O)[C@H](Cc1c[nH]c2ccccc12)NC(=O)[C@@H]1CCCN1C(=O)[C@H](CCCNC(=N)N)NC(=O)[C@@H](CCCNC(=N)N)NC(=O)[C@@H]1CCCN1C(=O)[C@H](CCCCNC(=O)CCSC1CC(=O)N(CCCCCC(=O)NCC(=O)N[C@@H](Cc2ccccc2)C(=O)N[C@@H](CC(C)C)C(=O)NCC(=O)NCCCN2C(=O)CC(SCCC(=O)N(C)[C@@H](C)C(=O)O[C@H]3CC(=O)N(C)c4cc(cc(OC)c4Cl)C/C(C)=C/C=C/[C@@H](OC)[C@@]4(O)C[C@H](OC(=O)N4)[C@@H](C)[C@@H]4O[C@@]34C)C2=O)C1=O)NC(C)=O)C(=O)N[C@@H](C[Si](C)(C)C)C(=O)O` (stereo partly shown) [Compound 43], the Ki amounted to 1.31 nM.
Turning to `COc1cc2cc(c1Cl)N(C)C(=O)C[C@H](OC(=O)[C@H](C)N(C)C(=O)CCSC1CC(=O)N(CCCNC(=O)CNC(=O)[C@H](CC(C)C)NC(=O)[C@H](Cc3ccccc3)NC(=O)CNC(=O)CCCCCN3C(=O)CC(SCCC(=O)NCCCC[C@H](NC(=O)c4ccc(N=[N+]=[N-])cc4)C(=O)N4CCC[C@H]4C(=O)N(C)[C@@H](CCCNC(=N)N)C(=O)N[C@@H](CCCNC(=N)N)C(=O)N4CCC[C@H]4C(=O)N[C@@H](Cc4ccc(O)cc4)C(=O)N[C@H](C(=O)N[C@@H](CC(C)C)C(=O)O)C(C)(C)C)C3=O)C1=O)[C@]1(C)O[C@H]1[C@H](C)[C@@H]1C[C@@](O)(NC(=O)O1)[C@H](OC)/C=C/C=C(\C)C2` (stereo partly shown) [Compound 49], the Ki is 0.18 nM.
Next, `CC[C@H](C)[C@H](NC(=O)[C@H](Cc1ccc(OC)c(OC)c1)NC(=O)[C@@H]1CCCN1C(=O)[C@H](CCCNC(=N)N)NC(=O)[C@@H](CCCNC(=N)N)NC(=O)[C@@H]1CCCN1C(=O)[C@H](CCCCNC(=O)CCSC1CC(=O)N(CCCCCC(=O)NCC(=O)N[C@@H](Cc2ccccc2)C(=O)N[C@@H](CC(C)C)C(=O)NCC(=O)NCCCN2C(=O)CC(SCCC(=O)N(C)[C@@H](C)C(=O)O[C@H]3CC(=O)N(C)c4cc(cc(OC)c4Cl)C/C(C)=C/C=C/[C@@H](OC)[C@@]4(O)C[C@H](OC(=O)N4)[C@@H](C)[C@@H]4O[C@@]34C)C2=O)C1=O)NC(C)=O)C(=O)N[C@@H](C[Si](C)(C)C)C(=O)O` (stereo partly shown) [Compound 46]: greater than 10 nM.
Next, `COc1cc2cc(c1Cl)N(C)C(=O)C[C@H](OC(=O)[C@H](C)N(C)C(=O)CCSC1CC(=O)N(CCCNC(=O)CNC(=O)[C@H](CC(C)C)NC(=O)[C@H](Cc3ccccc3)NC(=O)CNC(=O)CCCCCN3C(=O)CC(SCCC(=O)NCCCC[C@H](NC(C)=O)C(=O)N4CCC[C@H]4C(=O)N[C@@H](CCCCN)C(=O)N[C@@H](CCCCN)C(=O)N4CCC[C@H]4C(=O)N[C@@H](Cc4ccc(O)cc4)C(=O)N[C@@H](C[Si](C)(C)C)C(=O)N[C@@H](C[Si](C)(C)C)C(=O)O)C3=O)C1=O)[C@]1(C)O[C@H]1[C@H](C)[C@@H]1C[C@@](O)(NC(=O)O1)[C@H](OC)/C=C/C=C(\C)C2` (stereo partly shown) [Compound 48]: greater than 10 nM.

Source of the values: patent publication US20200078468A1, “NEUROTENSIN RECEPTOR BINDING CONJUGATES AND FORMULATIONS THEREOF” (priority 2016, published 2020).
